Test results: US5712260A, “Estramustine formulations with improved pharmaceutical properties” (Pharmacia AB, priority 1994, dated 1998)
Where a name gives a salt, the structure may show the parent alone.

How the values were obtained:
[1] = EPS in solution after addition of calcium chloride to solution of EPS and cyclodextrin, pH 3.1, UV spectroscopy (Examples 2-4); assay type: physicochemical; settings: about 1 mg/ml EPS
Method: (§1) The samples were filtered and the quantity of Estramustine-17-phosphate disodium salt in solution was assayed by UV spectroscopy.
as §1, §1

[2] = Solubilization by cyclodextrins of previously formed precipitate of EPS with calcium, pH 3.1, UV spectroscopy (Examples 5-7); assay type: physicochemical; settings: about 1 mg/ml EPS, CD added to preformed precipitate
Method: The samples were filtered and the quantity of Estramustine disodium salt in solution was assayed by UV spectroscopy.
as §1, §1

[3] = Solubility / reprecipitation of estramustine derivative with cyclodextrins (general statements); assay type: physicochemical; settings: for effects of reprecipitation induced by cations: calcium or other cations
[4] = oral administration; interaction with foods and drinks; cited from earlier work
[5] = Reprecipitation of EPS by calcium chloride in pH 3.1 buffer, EPS in solution assayed by UV spectroscopy (Example 1); assay type: physicochemical; settings: 640 mcg/ml EPS, pH 3.1 HCl/KCl buffer (I=0.1)
Method: To a solution in a pH 3.1 HCl/KCl buffer (I=0.1), containing 640 mcg/ml of Estramustine-17-phosphate disodium salt (EPS), were added appropriate quantities of calcium chloride in order to have drug:salt molar ratios in the range from 1:0 to 1:1. The samples were filtered and the quantity of Estramustine-17-phosphate sodium salt in solution was assayed by UV spectroscopy.

Row | Compound | EPS in solution ([1]; EPS:CD:CaCl2 molar ratio 1:0:1 (no CD)) [%] | EPS in solution ([1]; EPS:CD:CaCl2 molar ratio 1:0:2 (no CD)) [%] | EPS in solution ([1]; EPS:CD:CaCl2 molar ratio 1:0:4 (no CD)) [%] | EPS in solution ([2]; EPS:CaCl2:CD molar ratio 1:1:0 (no CD)) [%] | EPS in solution ([2]; EPS:CaCl2:CD molar ratio 1:2:0 (no CD)) [%] | EPS in solution ([2]; EPS:CaCl2:CD molar ratio 1:4:0 (no CD)) [%] | solubility of the drug itself ([3]; when mixed with cyclodextrins) | effects of reprecipitation induced by cations ([3]; with cyclodextrins, disodium salt) | reprecipitation of the drug [4] | EPS in solution ([5]; EPS:CaCl2 molar ratio 1:0) [%] | EPS in solution ([5]; EPS:CaCl2 molar ratio 1:0.25) [%] | EPS in solution ([5]; EPS:CaCl2 molar ratio 1:0.5) [%] | EPS in solution ([5]; EPS:CaCl2 molar ratio 1:1) [%] | effect of reprecipitation by anionic species ([3]; with cyclodextrins) | redissolution of already formed precipitate with calcium ([3]; with cyclodextrins) | passage in solution of the drug in the presence of calcium ions ([3]; with cyclodextrins, calcium ions in dissolution medium) | effects of reprecipitation induced by cations ([3]; with cyclodextrins)
1 | C[C@]12CC[C@@H]3c4ccc(OC(=O)N(CCCl)CCCl)cc4CC[C@H]3[C@@H]1CC[C@@H]2OP(=O)(O)O [EPS, Estramustine-17-phosphate disodium salt] | 16 | 4 | 4 | 16 | 4 | 4 | does not change in a significant way | quite negligible | induced by cations and in particular by calcium ions | 100 | 42 | 21 | 14 | – | – | – | –
2 | C[C@H](N)C(=O)O[C@H]1CC[C@H]2[C@@H]3CCc4cc(OC(=O)N(CCCl)CCCl)ccc4[C@H]3CC[C@]12C [Estramustine-17-L-alaninate] | – | – | – | – | – | – | – | – | induced by anionic species, such as chlorine ions | – | – | – | – | avoiding any effect of reprecipitation by anionic species | – | – | –
3 | C[C@]12CC[C@@H]3c4ccc(OC(=O)N(CCCl)CCCl)cc4CC[C@H]3[C@@H]1CC[C@@H]2OP(=O)(O)O [Estramustine-17-phosphate] | – | – | – | – | – | – | – | – | – | – | – | – | – | – | redissolve the already formed precipitate | permit the passage in solution of the drug | avoid the reprecipitation
